Results: patent US20210186960A1, “MODULATORS OF INDOLEAMINE 2,3-DIOXYGENASE” (GLAXOSMITHKLINE INTELLECTUAL PROPERTY DEVELOPMENT LIMITED, priority 2017, published 2021)

Legend:
[1] = molecular target: T1, indoleamine 2, 3-dioxygenase (IDO1) (Homo sapiens, UniProt P14902); assay: IDO1 PBMC RapidFire MS assay (kynurenine detection); format: cell-based; settings: IFN-γ/LPS stimulated human PBMC, kynurenine by MS, 2 days; read-out: PBMC PXC50 (converted)
T1 construct: to induce the expression of indoleamine 2, 3-dioxygenase (IDO1); host or cells: human PBMC stimulated with IFN-gamma and LPS
T1 sequence (P14902 whole entry): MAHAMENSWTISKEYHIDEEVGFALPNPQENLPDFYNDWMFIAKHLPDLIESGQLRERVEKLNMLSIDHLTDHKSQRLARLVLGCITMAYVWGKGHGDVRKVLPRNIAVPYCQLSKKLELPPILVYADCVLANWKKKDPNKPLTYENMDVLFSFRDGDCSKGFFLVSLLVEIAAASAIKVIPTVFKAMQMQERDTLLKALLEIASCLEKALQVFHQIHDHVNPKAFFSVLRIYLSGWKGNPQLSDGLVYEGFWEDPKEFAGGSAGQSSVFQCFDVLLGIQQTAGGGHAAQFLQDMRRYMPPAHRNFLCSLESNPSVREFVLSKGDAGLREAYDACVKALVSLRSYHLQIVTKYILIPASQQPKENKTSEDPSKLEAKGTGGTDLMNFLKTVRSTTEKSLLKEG
Description: (§1) Compounds of the present invention were tested via high-throughput cellular assays utilizing detection of kynurenine via mass spectrometry and cytotoxicity as end-points. For the mass spectrometry and cytotoxicity assays, human peripheral blood mononuclear cells (PBMC) (PB003F; AllCells®, Alameda, Calif.) were stimulated with human interferon-γ (IFN-γ) (Sigma-Aldrich Corporation, St. Louis, Mo.) and lipopolysaccharide from Salmonella minnesota (LPS) (Invivogen, San Diego, Calif.) to induce the expression of indoleamine 2, 3-dioxygenase (IDO1). Compounds with IDO1 inhibitory properties decreased the amount of kynurenine produced by the cells via the tryptophan catabolic pathway. Cellular toxicity due to the effect of compound treatment was measured using CellTiter-Glo® reagent (CTG) (Promega Corporation, Madison, Wis.), which is based on luminescent detection of ATP, an indicator of metabolically active cells.
(§2) In preparation for the assays, test compounds were serially diluted 3-fold in
(§3) DMSO from a typical top concentration of 1 mM or 5 mM and plated at 0.5 μL in 384-well, polystyrene, clear bottom, tissue culture treated plates with lids (Greiner Bio-One, Kremsmünster, Austria) to generate 11-point dose response curves. Low control wells (0% kynurenine or 100% cytotoxicity) contained either 0.5 μL of DMSO in the presence of unstimulated (−IFN-γ/−LPS) PBMCs for the mass spectrometry assay or 0.5 μL of DMSO in the absence of cells for the cytotoxicity assay, and high control wells (100% kynurenine or 0% cytotoxicity) contained 0.5 μL of DMSO in the presence of stimulated (+IFN-γ/+LPS) PBMCs for both the mass spectrometry and cytotoxicity assays.
(§4) Frozen stocks of PBMCs were washed and recovered in RPMI 1640 medium (Thermo Fisher Scientific, Inc., Waltham, Mass.) supplemented with 10% v/v heat-inactivated fetal bovine serum (FBS) (Thermo Fisher Scientific, Inc., Waltham, Mass.), and 1× penicillin-streptomycin antibiotic solution (Thermo Fisher Scientific, Inc., Waltham, Mass.). The cells were diluted to 1,000,000 cells/mL in the supplemented RPMI 1640 medium. 50 μL of either the cell suspension, for the mass spectrometry assay, or medium alone, for the cytotoxicity assay, were added to the low control wells, on the previously prepared 384-well compound plates, resulting in 50,000 cells/well or 0 cells/well respectively. IFN- y and LPS were added to the remaining cell suspension at final concentrations of 100 ng/ml and 50 ng/ml respectively, and 50 μL of the stimulated cells were added to all remaining wells on the 384-well compound plates. The plates, with lids, were then placed in a 37 °C, 5% CO2 humidified incubator for 2 days.
(§5) Following incubation, the 384-well plates were removed from the incubator and allowed to equilibrate to room temperature for 30 minutes. For the cytotoxicity assay, CellTiter-Glo® was prepared according to the manufacturer's instructions, and 40 μL were added to each plate well. After a twenty minute incubation at room temperature, luminescence was read on an EnVision® Multilabel Reader (Perkin Elmer Inc., Waltham, Mass.). For the mass spectrometry assay, 10 μL of supernatant from each well of the compound-treated plates were added to 40 μL of acetonitrile, containing 10 μM of an internal standard for normalization, in 384-well, polypropylene, V-bottom plates (Greiner Bio-One, Kremsmunster, Austria) to extract the organic analytes. Following centrifugation at 2000 rpm for 10 minutes, 10 μL from each well of the acetonitrile extraction plates were added to 90 μL of sterile, distilled H2O in 384-well, polypropylene, V-bottom plates for analysis of kynurenine and the internal standard on the RapidFire 300 (Agilent Technologies, Santa Clara, Calif.) and 4000 QTRAP MS (SCIEX, Framingham, Mass.). MS data were integrated using Agilent Technologies' RapidFire Integrator software, and data were normalized for analysis as a ratio of kynurenine to the internal standard. […]

[2] = tested on: human peripheral blood mononuclear cells (PBMC); assay: PBMC cytotoxicity assay (CellTiter-Glo); format: cell-based; settings: pCC50, CellTiter-Glo, stimulated human PBMC, 2 days
Description: as §1, §2, §3, §4, §5

[3] = Rat oral PK studies of prodrugs at 5 mg/kg; format: in vivo; settings: analyte as labelled
Description: Rat oral PK studies of prodrugs at 5 mg/kg dose (solution in 100% (40 mg oleic acid+25mg Tween 80+2 mL of PBS/fresh) at 0.5 mg/mL).

[4] = Plasma PK and tissue distribution after oral dosing of prodrug EXAMPLE 7 (5 mg/kg); format: in vivo; settings: PO 5 mg/kg EXAMPLE 7 (prodrug), male Wistar Han rat, analyte as labelled
Description: Tissue Distribution of drug intermediate C4 from oral dosing of C4 and of intermediate C4 from oral dosing of example 7 in rats
• Wistar Han rat, 185-197 g, male, N=8, purchased from Beijing Vital River Co. LTD. Qualification No.: SCXK(J) 2016-0011 11400700240027. Fasted overnight and fed 4 hr post dose. PO: 5 mg/kg (10 mL/kg) via oral gavage(N=8). Sampling at 1, 4, 8 and 24 hr , 4 time points, terminal bleeding for plasma, liver, lymph nodes and spleen collected at each time point

[5] = after PO dose of 5 mg/kg example 6 in male Wistar Han rat

CCCCCCCCCCCCCCCC(=O)OCC(COC(=O)CCCCCCCCCCCCCCC)OC(=O)CC(C)CC(=O)O[C@H]1CC[C@H](N(CC(C)C)c2ccc([C@H](C)CC(=O)O)cc2Nc2cnc(Cl)cn2)CC1 (stereo partly drawn) [example 4, (3R)-3-(4-((trans-4-((5-((1,3-bis(palmitoyloxy)propan-2-yl)oxy)-3-methyl-5-oxopentanoyl)oxy)cyclohexyl) (isobutyl)amino)-3-((5-chloropyrazin-2-yl)amino)phenyl)butanoic acid]
IC50 [1]: 7940 nM
PBMC TOX PXC50 [2]: <5

CCCCCCCCCCCCCCCC(=O)OCC(COC(=O)CCCCCCCCCCCCCCC)OC(=O)CC(C)CC(=O)OCOC(=O)C[C@@H](C)c1ccc(N(CC(C)C)C2CCOCC2)c(Nc2cnc(Cl)cn2)c1 (stereo partly drawn) [example 7, 1-(1,3-bis(palmitoyloxy)propan-2-yl) 5-((((R)-3-(3-((5-chloropyrazin-2-yl)amino)-4-(isobutyl(tetrahydro-2H-pyran-4-yl)amino)phenyl)butanoyl)oxy)methyl) 3-methylpentanedioate]
IC50 [1]: 1000 nM
PBMC TOX PXC50 [2]: <5
DNAUC0_20 ([3]; after PO dose of 5 mg/kg example 7 in male Wistar Han rat): not detected
liver Concentration Mean ([4]; 1 hr): BQL
liver Concentration individual ([4]; 1 hr): BQL
lymph node Concentration Mean ([4]; 1 hr): BQL
lymph node Concentration individual ([4]; 1 hr): BQL
plasma Concentration Mean ([4]; 1 hr): BQL
plasma Concentration individual ([4]; 1 hr): BQL
spleen Concentration Mean ([4]; 1 hr): BQL
spleen Concentration individual ([4]; 1 hr): BQL
liver Concentration Mean ([4]; 4 hr): BQL
liver Concentration individual ([4]; 4 hr): BQL
lymph node Concentration Mean ([4]; 4 hr): BQL
lymph node Concentration individual ([4]; 4 hr): BQL
plasma Concentration Mean ([4]; 4 hr): BQL
plasma Concentration individual ([4]; 4 hr): BQL
spleen Concentration Mean ([4]; 4 hr): BQL
spleen Concentration individual ([4]; 4 hr): BQL
liver Concentration Mean ([4]; 8 hr): BQL
liver Concentration individual ([4]; 8 hr): BQL
lymph node Concentration Mean ([4]; 8 hr): BQL
lymph node Concentration individual ([4]; 8 hr): BQL
plasma Concentration Mean ([4]; 8 hr): BQL
plasma Concentration individual ([4]; 8 hr): BQL
spleen Concentration Mean ([4]; 8 hr): BQL
spleen Concentration individual ([4]; 8 hr): BQL
liver Concentration Mean ([4]; 24 hr): BQL
liver Concentration individual ([4]; 24 hr): BQL
lymph node Concentration Mean ([4]; 24 hr): BQL
lymph node Concentration individual ([4]; 24 hr): BQL
plasma Concentration Mean ([4]; 24 hr): BQL
plasma Concentration individual ([4]; 24 hr): BQL
spleen Concentration Mean ([4]; 24 hr): BQL
spleen Concentration individual ([4]; 24 hr): BQL

CC(C)CN(c1ccc([C@H](C)CC(=O)O)cc1Nc1cnc(Cl)cn1)[C@H]1CC[C@H](O)CC1 [intermediate C3]
PBMC TOX PXC50 [2]: <5

CCCCCCCCCCCCCCCC(=O)OCC(COC(=O)CCCCCCCCCCCCCCC)OC(=O)CC(C)CC(=O)OCOC(=O)C[C@@H](C)c1ccc(N(CC(C)C)C2CCOCC2)c(Nc2ccc(Cl)nc2)c1 (stereo partly drawn) [example 6, 1-(1,3-bis(palmitoyloxy)propan-2-yl) 5-((((R)-3-(3-((6-chloropyridin-3-yl)amino)-4-(isobutyl(tetrahydro-2H-pyran-4-yl)amino)phenyl)butanoyl)oxy)methyl) 3-methylpentanedioate]
IC50 [1]: 3160 nM
PBMC TOX PXC50 [2]: <5
DNAUC0_20 [3, 5]: not detected

CCCCCCCCCCCCCCCC(=O)OCC(COC(=O)CCCCCCCCCCCCCCC)OC(=O)CC(C)CC(=O)Oc1cc(C)cc(C)c1C(C)(C)CC(=O)O[C@H]1CC[C@H](N(CC(C)C)c2ccc([C@H](C)CC(=O)O)cc2Nc2cnc(Cl)cn2)CC1 (stereo partly drawn) [example 5, (3R)-3-(4-((trans-4-((3-(2-((5-((1,3-bis(palmitoyloxy)propan-2-yl)oxy)-3-methyl-5-oxopentanoyl)oxy)-4,6-dimethylphenyl)-3-methylbutanoyl)oxy)cyclohexyl)(isobutyl)amino)-3-((5-chloropyrazin-2-yl)amino)phenyl)butanoic acid]
IC50 [1]: 631 nM
PBMC TOX PXC50 [2]: <5
DNAUC0_20 ([3]; after PO dose of 5 mg/kg example 5 in male Wistar Han rat): not detected

CCCCCCCCCCCCCCCC(=O)OCC(COC(=O)CCCCCCCCCCCCCCC)OC(=O)CCCC(=O)O[C@H]1CC[C@H](N(CC(C)C)c2ccc([C@H](C)CC(=O)O)cc2Nc2ccc(Cl)nc2)CC1 [example 1, (R)-3-(4-((trans-4-((5-((1,3-bis(palmitoyloxy)propan-2-yl)oxy)-5-oxopentanoyl)oxy)cyclohexyl) (isobutyl)amino)-3-((6-chloropyridin-3-yl)amino)phenyl)butanoic acid]
IC50 [1]: 158 nM
PBMC TOX PXC50 [2]: <5

CCCCCCCCCCCCCCCC(=O)OCC(COC(=O)CCCCCCCCCCCCCCC)OC(=O)CCCC(=O)O[C@H]1CC[C@H](N(CC(C)C)c2ccc([C@H](C)CC(=O)O)cc2Nc2cnc(Cl)cn2)CC1 [example 2, (R)-3-(4-((trans-4-((5-((1,3-bis(palmitoyloxy)propan-2-yl)oxy)-5-oxopentanoyl)oxy)cyclohexyl) (isobutyl)amino)-3-((5-chloropyrazin-2-yl)amino)phenyl)butanoic acid]
IC50 [1]: 251 nM
PBMC TOX PXC50 [2]: <5
DNAUC0_20 ([3]; after PO dose of 5 mg/kg example 2 in male Wistar Han rat): not detected

CC(C)CN(c1ccc([C@H](C)CC(=O)O)cc1Nc1ccc(Cl)nc1)[C@H]1CC[C@H](O)CC1 [intermediate C2, (R)-3-(3-((6-chloropyridin-3-yl)amino)-4-(((1r,4R)-4 hydroxycyclohexyl)(isobutyl)amino)-phenyl)butanoic acid]
PBMC TOX PXC50 [2]: <5

CCCCCCCCCCCCCCCC(=O)OCC(COC(=O)CCCCCCCCCCCCCCC)OC(=O)CC(C)CC(=O)O[C@H]1CC[C@H](N(CC(C)C)c2ccc([C@H](C)CC(=O)O)cc2Nc2ccc(Cl)nc2)CC1 (stereo partly drawn) [example 3, (3R)-3-(4-((trans-4-((5-((1,3-bis(palmitoyloxy)propan-2-yl)oxy)-3-methyl-5-oxopentanoyl)oxy)cyclohexyl) (isobutyl)amino)-3-((6-chloropyridin-3-yl)amino)phenyl)butanoic acid]
IC50 [1]: 1260 nM
PBMC TOX PXC50 [2]: <5

CC(C)CN(c1ccc([C@H](C)CC(=O)O)cc1Nc1ccc(Cl)nc1)C1CCOCC1 [intermediate C5]
PBMC TOX PXC50 [2]: <5
DNAUC0_20 [3, 5]: 75 ng·h/mL
